Assays:
RelA = experiment: Cellular localization of RelA in TNF-α-stimulated endothelial cells; assay type: cell-based; conditions: co-treatment with TNF-α
Text: Co-treatment with [11,12]-EET prevented the nuclear accumulation of RelA. Since the nuclear translocation of RelA requires the degradation of its endogenous cytoplasmic inhibitor, inhibitor kappa B (IκB-α), we followed the fate of IκB-α after TNF-α stimulation in the presence or absence of [11,12]-EET. Stimulation of human endothelial cells with TNF-α caused a rapid and almost complete disappearance of IκB-α which was prevented by co-treatment with [11,12]-EET, but not [14,15]-EET.

VCAM-1 = VCAM-1 expression in the murine carotid artery after TNF-α; assay type: in vivo; conditions: mouse, intra-arterial infusion 100 ng/kg/min, TNF-α 10 μg/kg i.p., 5 hours
Protocol: FIG. 3A is a graph showing the expression of VCAM-1 in the murine carotid artery at 5 hours after treatment with intraperitaneal injection of TNF-α (10 μg/kg) alone or in combination with continuous intra-arterial infusion of [11,12]-EET (100 ng/kg/min). FIG. 3B is a bar graph showing the effect of [11,12]-EET on TNF-α induced mononuclear cell adhesion in the murine carotid artery. The mononuclear cells (U937) were perfused through the carotid artery at a wall shear stress of 3 dyn/cm^2. Intra-arterial infusion of vehicle (saline) or [14,15]-EET (100 ng/kg/min) had no effect. […] All experiments except the [14,15]-EET infusion were performed in duplicate.
To determine the functional relevance of EETs in vascular inflammation, we tested [11,12]-EET and its regioisomer [14,15]-EET in a recently developed in vivo model of TNF-α-induced VCAM-1 -mediated mononuclear cell adhesion in the murine carotid artery. […]
Cell rolling and adhesion were recorded on videotape using stroboscopic epifluoresence illumination with an introvital microscope (objective Zeiss 20×, 0.5 numerical aperture). […] In separate experiments, VCAM-1 expression was measured in paraffin-sections (5 μm thick) of carotid arteries harvested from mice treated in the same way. […]

VCAM-1 expression = experiment: Cell-surface enzyme immunoassay of cytokine-induced VCAM-1 expression in endothelial cells; assay type: cell-based, human; conditions: human endothelial cells, 1-100 nM
Protocol: (§1) FIG. 2 is a set of bar graphs of cell-surface enzyme immunoassays. […] The difference between treatment with TNF-α alone and in the presence of [11,12]-EET were statistically significant (*p<0.05, **p<0.01), OD, optical density. […] After stimulation with TNF-α (10 ng/ml) in the presence or absence of EET, promoter activity was determined relative to basal activity. *p<0.01 vs. TNF-α alone.
(§2) To determine the biological effects of EETs, we treated tumor necrosis factor alpha (TNF-α)-stimulated human endothelial cells with physiological relevant concentrations (1-100 nM) of [5,6]-EET, [8,9]-EET, [11,12]-EET, [14,15]-EET, [11,12]-DHET.

ICAM-1 expression = experiment: Cell-surface enzyme immunoassay of TNF-α-induced ICAM-1 expression in endothelial cells; assay type: cell-based, human; conditions: 100 nM, TNF-α 10 ng/ml
Protocol: as §1, §2

E-selectin expression = experiment: Cell-surface enzyme immunoassay of TNF-α-induced E-selectin expression in endothelial cells; assay type: cell-based, human; conditions: 100 nM, TNF-α 10 ng/ml
Protocol: as §1, §2

superoxide anion = experiment: Superoxide anion formation by BAECs (lucigenin chemiluminescence); assay type: cell-based, bovine; conditions: CYP2J2-transfected vs GFP-transfected cells
Protocol: The rate of superoxide anion generation by BAECs was determined as follows: Forty-eight hours after transfection with either pcDNA3.1/GFP or pcDNA3.1/CYP2J2, BAECs were detached by treatment with trypsin and resuspended in culture medium containing 10% FBS. Special care was taken to avoid unnecessary manipulation of the BAECs. The rate of superoxide anion formation in vitro was determined by chemiluminescence of lucigenin (bis-N-methylacridinium nitrate) as described by Yang et al., 274 Am. J. Physiol. H1955-H1961 (1998)). Briefly, culture medium (10% of FBS added) containing 0.25 mmol/L lucigenin (pH 7.4) was prepared as an assay solution. One milliliter of this assay solution was placed in a plastic scintillation vial., and then 2×10^6 BAECs were gently placed in the assay solution. The chemiluminescence of lucigenin was then detected with the use of a scintillation counter (LS 6500, Beckman Instruments, Fullerton, Calif.) in out-of-coincidence mode with a single active photomultiplier tube every 5 min. The chemical specificity of this light-yielding reaction for superoxide anion has been reported previously (Yang et al., 274 Am. J. Physiol. H1955-H1961 (1998)).

endogenous EET levels = experiment: Endogenous EET levels in BAECs (gas chromatography/mass spectrometry); assay type: cell-based, bovine; conditions: CYP2J2 transfection vs control BAECs
Text: In addition to the cyclooxygenase and lipoxygenase pathways, the P450 monooxygenase pathway is an important member of the cardiac arachidonic acid metabolic cascade (Wu et al., 272 J. Biol. Chem 12551 (1997)).

Question: Which “effect on TNF-α-induced nuclear accumulation of RelA” value (RelA) does the source give for `CCCCC/C=C\C[C@H]1O[C@H]1C/C=C\C/C=C\CCCC(=O)O` [[11,12]-EET] here?
Answer: Its value is “prevented”.

Question: And the “VCAM-1 expression in carotid artery” value (VCAM-1)?
Answer: Its value is “decreased”.

Question: What about the “inhibition of TNF-α-induced VCAM-1 expression (rank/words)” value (VCAM-1 expression; TNF-α) of the same compound?
Answer: Its value is “most effective”.

Question: And the “maximal inhibition of TNF-α-induced VCAM-1 expression” value (VCAM-1 expression; TNF-α 10 ng/ml)?
Answer: The value was 75%.

Question: And the “inhibition of ICAM-1 expression” value (ICAM-1 expression)?
Answer: The value was “inhibited”.

Question: What about the “inhibition of E-selectin expression” value (E-selectin expression) of the same compound?
Answer: The value was “inhibited”.

Question: Which “rate of superoxide anion formation” value (superoxide anion) does the source give for “CYP2J2: CYP2J2 cDNA (1.9 kb) subcloned into plasmid pcDNA3.1, transfected into endothelial cells” here?
Answer: Its value is “significantly lower”.

Question: And the “increase of endogenous EET levels” value (endogenous EET levels)?
Answer: The value was “approximately 30%”.
